Experiments:
[1] = test system: fecal culture B supplemented with E. limosum; assay: Supplementation of selected E. limosum strain to non-converting fecal culture B incubated with IX; type: in vitro ADME, human; details: 8-PN concentration day one versus day seven
Description: The most efficient E. limosum strain, obtained from the selection experiment in example 2, was supplemented to the originally non-converting culture B of example 1, to examine the capacity of this strain to initiate the production of 8-PN in the complex environment of a fecal suspension. The strain was added to the culture in proportions ranging from 0% up to 100% (v/v). This mixture was incubated with 10% (v/v) of 25 mg/L IX for a period of seven days in Brain Heart Infusion broth (with 0.5 g/l cystein-HCl) under anaerobic conditions. The concentration of 8-PN was monitored every two days (FIG. 7).

[2] = cited from earlier work
[3] = test system: Eubacterium limosum ATCC 8486; assay: Incubation of IX and 8-PN with Eubacterium limosum for 13 days; type: in vitro ADME; details: E. limosum, 8-PN as substrate, 13 days
Description: Eubacterium limosum ATCC 8486 and Peptostreptococcus productus ATCC 27340 were obtained from the German Collection of Microorganisms and Cell Cultures (DSMZ, Braunschweig, Germany). E. limosum was incubated for 13 days in Brain Heart Infusion broth (with 0.5 g/l cystein-HCl) with 25 mg/l of IX and 8-PN under anaerobic conditions (Table 2). This strain was able to convert IX into 8-PN. […] This feature is clearly different from the metabolic pathway as observed in liver microsomes wherein 8-PN is extensively further metabolised [Nikolic et al. (2005) J. of Mass Spectrom. 40, 289-299; Nikolic et al. (2004) Drug Metabolism and Disposition 32, 272-279].

[4] = rats, 1000 mg/kg body weight of X; cited from earlier work
[5] = Incubation of X or IX with human fecal cultures A-D for 8 days, conversion products detected by HPLC; type: in vitro ADME; details: human, 25 mg/l substrate, 8 days anaerobic, average (stdev) molar percentage relative to dosed flavonoid
Description: (§1) Fecal slurries of 20% (w/v) fresh fecal samples were prepared by homogenizing the feces with phosphate buffered saline (0.1 M, pH 7) containing 1 g/l sodiumthioglycolate as reducing agent. The particulate material was removed by centrifugation (1 min, 500×g). The supernatant is hereafter called “the culture”.
(§2) The capacity of the cultures obtained from fecal samples A, B, C and D (further referred as cultures A-D) to degrade or transform the hop prenylflavonoid IX was tested by incubating the fecal cultures (10% (v/v)) in Brain Heart Infusion broth (with 0.5 g/l cystein-HCl) with 25 mg/l of isoxanthohumol for a period of 8 days under anaerobic conditions. Extracts of the incubations at days 0 and 8 were assayed for bioactive transformation products of IX using a Yeast Estrogenic Screen, according to De Boever et al. (2001) Env. Health Perspectives 109, 691-697, based on Routledge & Sumpter (1996) Environ. Toxicol. Chem. 15, 241-248. In brief, Saccharomyces cerevisiae, was transformed with the human estrogen receptor (ERα) gene, together with expression plasmids containing responsive elements and the lacZ reporter gene (encoding the enzyme β-galactosidase). β-galactosidase activity is quantified at 540 nm by the conversion of the chromogenic substance chlorophenol red-β-D-galactopyranoside into chlorophenol red. The bioassay response is expressed as the absorbance at 540 nm divided by the optical density at 630 nm [(A540/A630)net]. The estrogenic activity of the samples was expressed as percentage equivalence to 10 nM estradiol (E2) which elicited a 100% response in the estrogen receptor bioassay. The bioassays were performed in 96-well plates in which 10 μL of the test compounds were tested and incubated with 240 μL of the genetically modified yeast (optical density of 0.25 at 610 nm). Serial dilutions of the test compounds were made in dimethylsulfoxide, which allowed generating dose-response curves for […]. The data were fitted by a 4 parametric logistic model using the Marquardt-Levenberg algorithm (Sigmaplot 4.0, SPSS Inc., Chicago, Ill., USA) (De Boever et al. (2001) Env. Health Perspectives 109, 691-697).
(§3) To further test this transformation, cultures A-D (10% (v/v)) were incubated for 8 days in Brain Heart Infusion broth (with 0.5 g/l cystein-HCl) with either X or IX at a concentration of 25 mg/l under anaerobic conditions and conversion products were detected by HPLC (Table 1). […] However, in culture C almost 40% of 8-PN was recovered, which explains the increase in estrogenic properties of culture C.

human fecal cultures = assay: as above; type: in vitro ADME; details: all fecal samples A-D, also with autoclaved cultures (non-enzymatic isomerisation)
Description: as §1, §2, §3

CC(C)=CCc1c(O)cc(O)c2c1O[C@H](c1ccc(O)cc1)CC2=O [8-PN, 8-prenylnaringenin]
Further conversion of 8-PN [1]: No further conversion of 8-PN was detected | Concentration needed for harmful in-vivo activity [2]: ~100 µg/mL | Further degradation of 8-PN [3]: did not further degrade 8-PN

COc1cc(O)c(CC=C(C)C)c(O)c1C(=O)/C=C/c1ccc(O)cc1 [X, 2′,4,4′-trihydroxy-3′-prenyl-6′-methoxychalcone]
Share of recovered flavonoids in feces that was unchanged X [4]: 89% | recovery at 8 days, 25 mg/l ([5]; human fecal culture A (10% v/v), fecal Sample A): 74.9% | recovery at 8 days, 25 mg/l ([5]; human fecal culture B (10% v/v), fecal Sample B): 80.5% | recovery at 8 days, 25 mg/l ([5]; human fecal culture C (10% v/v), fecal Sample C): 73.6% | recovery at 8 days, 25 mg/l ([5]; human fecal culture D (10% v/v), fecal Sample D): 65.4% | Conversion of X to IX (human fecal cultures): slightly converted to IX

Reference: US8709764B2, “Enzymatic demethylation of flavonoids” (Universiteit Gent, priority 2005, dated 2014)
